Measurements from patent publication US20020143143A1, “Peptides designed for the diagnosis and treatment of rheumatoid arthritis” (priority 1999, published 2002).
Read-outs that look alike come from different tables or passages of the source.

How the values were obtained:
[1] = tested on: RA specific autoantibodies in human sera; assay: LIA comparison of synthetic peptides with existing peptides and citrullinated recombinant filaggrin (Example 3); assay type: binding; details: 212 established RA sera, 153 disease control sera (table title: 225 and 154); ROC analysis
Experimental: Streptavidin-complexed peptides were applied directly on a nylon membrane with a plastic backing. Blocked strips were incubated during 1 hour with human sera diluted 1/100 in 1 ml PBS, 0.5% caseine, 0.1% Triton X705, 10 mM MgCl2.6H2O. After washing with PBS, 0.05% Tween20, goat anti-human IgG-AP conjugate (Promega) diluted in PBS, 0.1% caseine, 0.2% Triton X705 was added for 30 min. Strips were developed in 100 mM NaCl, 100 mM Tris-HCl, pH 9.8, 50 mM MgCl2.6H2O substrate buffer containing the chromogenic substrate NBT/BCIP. Reaction was stopped after 30 min by addition of 0.2 N H2SO4. Air-dried strips were scanned using a HP Scanjet 5P scanner and an in-house LIA interpretation software program.
Recombinant human filaggrin was expressed in E. coli and purified by Ni-IMAC chromatography. Citrullination was performed as described by Senshu et al. (1995) using peptidylarginine deiminase (Sigma) at a 1/120 enzyme/substrate ratio during 4h at 37° C.
Three synthetic peptides (IGP1475, 1477 and 1564) described by Girbal-Neuhauser (1999) (patent application WO 99/35167) and the cyclic peptide IGP1546 described in the patent application WO 98/22503, were synthesised and used for comparison with IGP1611, 1646, 1650 and 1651 on LIA.
On the same strips, also citrullinated recombinant E. coli filaggrin was applied. […]

RA sera [2] = details: cited from earlier work
[3] = tested on: anti-filaggrin antibodies in human sera; assay: Western blotting using natural filaggrin; assay type: binding
Experimental: Natural filaggrin was purified from human skin obtained freshly after abdominoplasty according to the protocol of Simon et al. (1993). The amount of protein was determined by the Bradford protein assay as modified by Peterson (1983) using BSA standard curves. The crude filaggrin preparation was subjected to 15% Laemmli SDS-PAGE using the Bio-Rad mini-gel apparatus. Two-μg protein/cm was loaded in a large slot and electrophoresed under standard conditions. The gel was subsequently electroblotted onto nitrocellulose membrane in 10% methanol, 10 mM CAPS, pH 11.0 during 40 min. The blot was blocked in PBS, 0.05% Tween20, 1% gelatin and cut into 3 mm strips, which were probed with human sera overnight at a 1/100 dilution in PBS, 0.05% Tween20, 0.1% gelatin. As a secondary antibody the anti-human IgG-AP conjugate (Sigma, St Louis, […]) was added at a 1/1000 dilution; visualisation occurred with the NBT/BCIP chromogenic substrate.

RA sera [4] = details: 159/279 RA sera; specificity level of 98.6% using 213 disease control sera; cited from earlier work
[5] = tested on: anti-filaggrin autoantibodies; details: cited from earlier work

Citr. rec. filaggrin: Recombinant human filaggrin expressed in E. coli, citrullinated using peptidylarginine deiminase
Sensitivity at 98% spec. level [1]: 32%

natural filaggrin: Natural filaggrin purified from human skin (crude filaggrin preparation); in b6 isolated from human epidermis
RA sera detected in ELISA (RA sera [2]; 55 RA sera): 47%
healthy controls showing positivity in ELISA (RA sera [2]; healthy controls): 1%
sensitivity of Western blot ([3]; 47 sera from patients with early disease (less than 12 months of symptoms)): 25%
specificity of Western blot system ([3]; 153 disease controls): 94%
sensitivity of Western blot ([3]; 212 longstanding RA sera): 41%
RA sera showing positive reaction on Western blot (RA sera [4]): 37%

recombinant human filaggrin: recombinant human filaggrin, in vitro deiminated by PAD or non-citrullinated (Girbal-Neuhauser et al., 1999)
reactivity with human RA sera in ELISA ([5]; after in vitro deimination by peptidylarginine deiminase (PAD)): reactive
reactivity with human RA sera in ELISA ([5]; non-citrullinated protein): unreactive
